{
  "source": "patent US5939409A",
  "about": "“Processes for the production of anti-inflammatory steroids” (priority 1991, dated 1999)",
  "key": {"[1]": {"test_system": "Sephadex induced lung edema (left lung lobe)", "assay": "Local antiinflammatory activity on airway mucosa (left lung lobe), Sephadex induced lung edema, local instillation", "format": "in vivo, Sprague Dawley rat", "conditions": "rat; for ED50 (left lung administration), left lung lobe: required glucocorticosteroid dose to reduce the edema by 50% / ED50: left lung instillation 2 h before Sephadex (5 mg/kg), left lung lobe weighed 20 h later, relative to Sephadex control group; for ED50: read-out: ED50 (left lung administration), left lung lobe: required glucocorticosteroid dose to reduce the edema by 50%", "protocol": "A. Test model for desired local antiinflammatory activity on airway mucosa (left lung lobe)\nSprague Dawley rats (250 g) were slightly anaesthetized with Ephrane and the glucocorticosteroid test preparation (suspended in saline) in a volume of 0.5 ml/kg was instilled into just the left lung lobe. Two hours later a suspension of Sephadex (5 mg/kg in a volume of 1 ml/kg) was instilled under slight anaesthesia in the trachea well above the bifurcation so that the suspension reached both the left and right lung lobes. Twenty hours later the rats were killed and the left lung lobes dissected out and weighed. Control groups got saline instead of glucocorticosteroid preparation and saline instead of Sephadex suspension to determine the weight of non-drug treated Sephadex edema and the normal lung weight."}, "[2]": {"test_system": "Sephadex induced lung edema (lung)", "assay": "Unwanted systemic effect by orally absorbed glucocorticosteroid, Sephadex induced lung edema", "format": "in vivo, Sprague Dawley rat", "conditions": "for ED50: po, read-out: ED50 (p.o. administration), lung: required glucocorticosteroid dose to reduce the edema by 50%; for ED50 / ED50 (p.o. administration), lung: required glucocorticosteroid dose to reduce the edema by 50%: rat, p.o. 2 h before Sephadex (5 mg/kg), lung lobes weighed 20 h later, relative to Sephadex control group; for dose required to inhibit lung edema (ED50) by oral administration relative to dose needed by local application to the lung (lung selectivity): ratio oral ED50 / local lung ED50, rat", "protocol": "B. Test model for unwanted systemic effect by orally absorbed glucocorticosteroid\nSprague Dawley rats (250 g) were slightly anaesthetized with Ephrane and after that the GCS test preparation in a volume of 0,5 ml/kg was given orally. Two hours later a suspension of Sephadex (5 mg/kg in a volume of 1 ml/kg) was instilled in the trachea well above the bifurcation so that the suspension reached both the left and the right lung lobes. Twenty hours later, the rats were killed and the lung lobes were weighed. Control groups got saline instead of glucocorticosteroid preparation and saline instead of Sephadex suspension to determine the weight of non-drug treated Sephadex edema and the normal weight."}},
  "data": [
    {"smiles": "CCCC1O[C@@H]2C[C@H]3[C@@H]4CCC5=CC(=O)C=C[C@]5(C)[C@H]4[C@@H](O)C[C@]3(C)[C@]2(C(=O)CO)O1", "note": "(stereo partly drawn) [Budesonide, reference compound]", "values": [
      {"measurement": "ED50 (left lung administration), left lung lobe: required glucocorticosteroid dose to reduce the edema by 50%", "setting": "[1]", "value": 300, "unit": "nmol/kg"},
      {"measurement": "ED50", "setting": "[1]", "value": 0.3, "unit": "µmol/kg"},
      {"measurement": "ED50", "setting": "[2]", "value": 4, "unit": "µmol/kg"},
      {"measurement": "ED50 (p.o. administration), lung: required glucocorticosteroid dose to reduce the edema by 50%", "setting": "[2]", "value": 4000, "unit": "nmol/kg"},
      {"measurement": "dose required to inhibit lung edema (ED50) by oral administration relative to dose needed by local application to the lung (lung selectivity)", "setting": "[2]", "value": 13, "unit": "times"}
    ]},
    {"smiles": "CCC[C@@H]1O[C@@H]2C[C@H]3[C@@H]4C[C@H](F)C5=CC(=O)CC[C@]5(C)[C@@]4(F)[C@@H](O)C[C@]3(C)[C@]2(C(=O)CO)O1", "note": "[Example 6, (22R)-16α,17α-butylidenedioxy-6α,9α-difluoro-11β,21-dihydroxypregn-4-ene-3,20-dione]", "values": [
      {"measurement": "local antiinflammatory activity compared with budesonide", "setting": "[1]; in words, left lung administration", "value": "much higher local antiinflammatory activity than budesonide"},
      {"measurement": "ED50 (left lung administration), left lung lobe: required glucocorticosteroid dose to reduce the edema by 50%", "setting": "[1]", "value": 10, "unit": "nmol/kg"},
      {"measurement": "ED50", "setting": "[1]", "value": 0.01, "unit": "µmol/kg"},
      {"measurement": "lung selectivity compared to the selected prior art compound (budesonide)", "setting": "[2]; in words, oral vs local lung ED50, rat", "value": "higher lung selectivity"},
      {"measurement": "ED50", "setting": "[2]", "value": 0.32, "unit": "µmol/kg"},
      {"measurement": "ED50 (p.o. administration), lung: required glucocorticosteroid dose to reduce the edema by 50%", "setting": "[2]", "value": 320, "unit": "nmol/kg"},
      {"measurement": "dose required to inhibit lung edema (ED50) by oral administration relative to dose needed by local application to the lung (lung selectivity)", "setting": "[2]", "value": 32, "unit": "times"}
    ]}
  ]
}
